Test results published in paper PMC7232442, “Biofilm Eradication by Symmetrical Selenoesters for Food-Borne Pathogens” (Microorganisms, 2020).
Values after ≈ are worked out from the molar mass of the structure shown. Values joined by “and” are separate entries in the source; they are usually repeats but may differ in a detail not shown here. Equal entries are not always repeated. Structures can show the parent of a compound that is named as a salt. Where two headings read alike, the source gives them in different places.

Columns and labels:
[1] = test system: S. aureus MRSA 272123; experiment: Real-time ethidium bromide accumulation assay; type: cell-based, Staphylococcus aureus; conditions: for Relative Fluorescence Index (RFI): S. aureus MRSA 272123, ½ MIC, minute 60
Protocol: (§1) The impact of compounds on EB accumulation was determined by the automated EB method using a CLARIOstar Plus plate reader (BMG Labtech, UK). Firstly, the bacterial strain was incubated until it reached an optical density (OD) of 0.6 at 600 nm. The culture was washed with phosphate buffered saline (PBS; pH 7.4) and centrifuged at 13,000× g for 3 min, the cell pellet was re-suspended in PBS. The compounds were added at ½ MIC concentration to PBS containing a non-toxic concentration of EB (1 µg/mL). Then, 50 μL of the EB solution containing the compound were transferred into 96-well black microtiter plate (Greiner Bio-One Hungary Kft, Hungary), and 50 μL of bacterial suspension (OD600 0.6) were added to the each well. Then, the plates were placed into the CLARIOstar plate reader, and the fluorescence was monitored at excitation and emission wavelengths of 530 nm and 600 nm every minute for one hour on a real-time basis. From the real-time data, the activity of the compounds, namely the relative fluorescence index (RFI) of the last time point (minute 60) of the EB accumulation assay, was calculated according to the following formula:RFI = (RFtreated − RFuntreated)/RFuntreated(2) where RFtreated is the relative fluorescence (RF) at the last time point of EB retention curve in the presence of an inhibitor, and RFuntreated is the RF at the last time point of the EB retention curve of the untreated control having the solvent control (DMSO).

[2] = test system: Staphylococcus aureus ATCC 25923; experiment: MIC determination by microdilution method; type: cell-based; conditions: S. aureus ATCC 25923
Protocol: (§2) The minimum inhibitory concentrations (MICs) of compounds were determined according to the Clinical and Laboratory Standard Institute guidelines (CLSI). MIC values of the compounds were determined by visual inspection. The solvent was also assayed to ensure there was no antibacterial effect and the concentration (1 v/v%) applied in the assays had no antibacterial activity. DMSO was used at subinhibitory concentration (1 v/v%) in the assays.

[3] = test system: S. aureus MRSA 272123; experiment: MIC determination by microdilution method; type: cell-based; conditions: Staphylococcus aureus
Protocol: as §2

[4] = test system: S. Typhimurium SE02 ΔacrB; experiment: MIC determination by microdilution method; type: cell-based, Salmonella enterica serovar Typhimurium; conditions: Salmonella enterica
Protocol: as §2

[5] = test system: S. Typhimurium SE03 ΔacrA; experiment: MIC determination by microdilution method; type: cell-based, Salmonella enterica serovar Typhimurium; conditions: Salmonella enterica
Protocol: as §2

[6] = test system: S. Typhimurium SE01 Wild-Type; experiment: MIC determination by microdilution method; type: cell-based, Salmonella enterica serovar Typhimurium; conditions: Salmonella enterica
Protocol: as §2

[7] = test system: MRC-5 human embryonal lung fibroblast cells; experiment: Cytotoxicity assay (MTT); type: cell-based; conditions: MRC-5 cells
Protocol: The adherent MRC-5 human embryonal lung fibroblast cells were cultured in 96-well flat-bottomed microtiter plates, using EMEM supplemented with 10% heat-inactivated fetal bovine serum. The density of the cells was adjusted to 1 × 10^4 cells in 100 μL per well, the cells were seeded overnight at 37 °C, 5% CO2, then the medium was removed from the plates containing the cells, and the dilutions of selenocompounds previously made in a separate plate were added to the cells in 200 μL.
The culture plates were incubated at 37 °C for 24 h; at the end of the incubation period, 20 μL of MTT (thiazolyl blue tetrazolium bromide, Sigma) solution (from a stock solution of 5 mg/mL) was added to each well. After incubation at 37 °C for 4 h, 100 μL of sodium dodecyl sulfate (SDS; Sigma) solution (10% in 0.01 M HCI) was added to each well and the plates were further incubated at 37 °C overnight. Cell growth was determined by measuring the optical density (OD) at 540/630 nm with Multiscan EX ELISA reader (Thermo Labsystems, Cheshire, WA, USA). Inhibition of the cell growth was determined according to the formula below:IC50 = 100 − [(ODsample − ODmedium control)/(ODcell control − ODmedium control)] × 100(1)
Results are expressed in terms of IC50, defined as the inhibitory dose that reduces the growth of the cells exposed to the tested compounds by 50%.

[8] = test system: S. aureus ATCC 25923; experiment: Real-time ethidium bromide accumulation assay; type: cell-based, Staphylococcus aureus; design: key to Relative Fluorescence Index (RFI): RFI = (RFtreated − RFuntreated)/RFuntreated at minute 60; conditions: for Relative Fluorescence Index (RFI): S. aureus ATCC 25923, ½ MIC, minute 60
Protocol: as §1

[9] = test system: S. Typhimurium SE02 ΔacrB; experiment: Real-time ethidium bromide accumulation assay; type: cell-based, Salmonella enterica serovar Typhimurium; conditions: for Relative Fluorescence Index (RFI): S. Typhimurium SE02 ΔacrB, ½ MIC, minute 60
Protocol: as §1

[10] = test system: S. Typhimurium SE01 Wild-Type; experiment: Real-time ethidium bromide accumulation assay; type: cell-based, Salmonella enterica serovar Typhimurium; conditions: ½ MIC, minute 60
Protocol: as §1

[11] = test system: S. aureus MRSA; experiment: Biofilm formation using crystal violet; type: cell-based, Staphylococcus aureus; conditions: for Biofilm inhibition: ½ MIC, 48 h
Protocol: The anti-biofilm effect of the tested compounds against S. aureus strains and wild-type S. Typhimurium SE01 was measured using crystal violet (CV; 0.1% (v/v)). This dye is used to detect the total biofilm biomass formed. Overnight cultures were diluted to OD of 0.1 at 600 nm in TSB medium. Then, the bacterial cultures were added to 96-well microtiter plates and the compounds were added at ½ MIC concentration. The final volume was 200 μL in each well. The microtiter plates were incubated at 30 °C for 48 h with gentle agitation (100 rpm). After the incubation period, TSB medium was discarded, and the plates were washed with tap water to remove unattached cells. Then 200 μL crystal violet was added to the wells and incubated for 15 min at room temperature. Then, CV was removed from the wells and the plates were washed again with tap water, and 200 μL of 70% ethanol was added to the wells. Finally, the biofilm formation was determined by measuring the OD at 600 nm using Multiscan EX ELISA plate reader (Thermo Labsystems, Cheshire, WA, USA). The anti-biofilm effect of compounds was expressed in the percentage (%) of decrease in biofilm formation.

[12] = test system: S. Typhimurium SE03 ΔacrA; experiment: Real-time ethidium bromide accumulation assay; type: cell-based, Salmonella enterica serovar Typhimurium; design: key to Relative Fluorescence Index (RFI): RFI = (RFtreated − RFuntreated)/RFuntreated at minute 60; conditions: for Relative Fluorescence Index (RFI): S. Typhimurium SE03 ΔacrA, ½ MIC, minute 60
Protocol: as §1

[13] = test system: S. Typhimurium SE39 ΔtolC; experiment: Real-time ethidium bromide accumulation assay; type: cell-based, Salmonella enterica serovar Typhimurium; design: key to Relative Fluorescence Index (RFI): RFI = (RFtreated − RFuntreated)/RFuntreated at minute 60; conditions: for Intracellular EB accumulation (in words): S. Typhimurium SE39, 60 min; for Relative Fluorescence Index (RFI): S. Typhimurium SE39 ΔtolC, ½ MIC, minute 60
Protocol: as §1

[14] = test system: S. aureus ATCC 25923; experiment: Resistance modulation assay (checkerboard) with TET or CIP; type: cell-based, Staphylococcus aureus; conditions: S. aureus ATCC 25923; no selenocompound
Protocol: (§3) The resistance modulation effect of compounds with ciprofloxacin (CIP) and tetracycline (TET) antibiotics were evaluated by the checkerboard method on S. aureus strains. Briefly, CIP or TET was diluted in a 96-well microtiter plate by two-fold serial dilution in MH broth and then the compounds were added at subinhibitory concentrations (½ MIC). In this assay, only the tested compounds with well-defined MIC values were tested. Finally, 10^−4 dilution of the overnight bacterial culture in MH was added to each well. The final volume was 200 µL in each well. The microtiter plates were incubated at 37 °C for 18 h. MIC values in the presence of the antibiotics alone and in combination with Se-compounds were determined by visual inspection.

[15] = test system: S. aureus MRSA 272123; experiment: as above; type: cell-based, Staphylococcus aureus; conditions: S. aureus MRSA 272123; no selenocompound
Protocol: as §3

[16] = test system: S. Typhimurium SE39 ΔtolC; experiment: MIC determination by microdilution method; type: cell-based, Salmonella enterica serovar Typhimurium; conditions: Salmonella enterica
Protocol: as §2

[17] = test system: C. violaceum 026 sensor strain with AHL producer E. cloacae 31298 (violacein production); experiment: Quorum sensing (QS) inhibition, parallel inoculation disk diffusion; type: cell-based, Chromobacterium violaceum; conditions: disc with 10 μL compound, starting concentration ½ MIC; 24–48 h
Protocol: The QS inhibitory effect of selenocompounds was examined on the AHL producer E. cloacae strain and C. violaceum sensor bacterial strain. These strains were inoculated in parallel. The QS inhibition was monitored by agar diffusion method on LB* agar plate as described previously. Filter paper discs (7.0 mm in diameter) were placed between the parallel inoculated strains and impregnated with 10 μL compounds. Starting concentration of the compounds was ½ MIC. The agar plates were incubated at room temperature (20 °C) for 24–48 h and the inhibition of violacein production was measured.

[18] = Staphylococcus aureus, ATCC25923
[19] = S. aureus MRSA 272123, read-out: MIC
[20] = S. Typhimurium SE01 wild-type, read-out: MIC

Compound	Relative Fluorescence Index (RFI) [1]	MIC [2, 18]	MIC [3, 19]	MIC [4]	MIC [5]	MIC [6, 20]	IC50 ([7]; Homo sapiens, MRC5, 24 h)	Relative Fluorescence Index (RFI) [8]	Relative Fluorescence Index (RFI) [9]	Relative Fluorescence Index (RFI) [10]	Relative Fluorescence Index (RFI) [12]	Relative Fluorescence Index (RFI) [13]	IC50 ([7]; 24 h)	also measured
CC(=O)C[Se]C(=O)c1cc(C(=O)[Se]CC(C)=O)cc(C(=O)[Se]CC(C)=O)c1 [Se-K3]	−0.18	0.39 µM (≈ 0.221 µg/mL)	0.78 µM (≈ 0.442 µg/mL)	25 µM (≈ 14.2 µg/mL)	25 µM (≈ 14.2 µg/mL)	50 µM (≈ 28.4 µg/mL)	0.74 µM	0.16	0.08	−0.20	0.28	0.44	–	MIC [2]: 0.39 µM (≈ 0.221 µg/mL); Anti-biofilm effect (in words) [11]: most effective anti-biofilm agent; Biofilm inhibition [11]: 84.7%; Intracellular EB accumulation (in words) [13]: significant EB accumulation
CN(C)[C@@H]1C(O)=C(C(N)=O)C(=O)[C@@]2(O)C(O)=C3C(=O)c4c(O)cccc4[C@@](C)(O)[C@H]3C[C@@H]12 [TET, tetracycline-hydrochloride, reference compound]	–	–	–	–	–	–	–	–	–	–	–	–	–	MIC of the antibiotic alone [14]: 0.88 µM; MIC of the antibiotic alone [15]: 14.06 µM
N#CCC[Se]C(=O)c1cccc(C(=O)[Se]CC#N)c1 [Se-C2]	−0.13	6.25 µM (≈ 2.4 µg/mL)	50 µM (≈ 19.2 µg/mL)	–	–	25 µM (≈ 9.6 µg/mL)	> 75 µM	0.08	0.03	−0.10	0.09	0.25	> 100 µM	–
N#CC(C#N)=NNc1cccc(Cl)c1 [CCCP, carbonyl cyanide m-chlorophenyl hydrazone, reference compound]	–	–	–	–	–	–	–	0.52	2.46	3.50	1.81	1.32	–	–
N#CC[Se]C(=O)c1cc(C(=O)[Se]CC#N)cc(C(=O)[Se]CC#N)c1 [Se-C3]	−0.05	1.56 µM (≈ 0.805 µg/mL)	–	12.5 µM (≈ 6.45 µg/mL)	12.5 µM (≈ 6.45 µg/mL)	–	> 75 µM	0.18	−0.02	−0.07	0.08	0.06	> 100 µM	MIC fold higher than the methylketone selenoester [2]: 4 fold; MIC ([3]; MRSA): 12.5 µM (≈ 6.45 µg/mL); MIC [16]: 25 µM (≈ 12.9 µg/mL); MIC ([6]; TYPHIMURIUM): 12.5 µM (≈ 6.45 µg/mL)
N#CC[Se]C(=O)c1ccc(C(=O)[Se]CC#N)cc1 [Se-C1]	−0.15	6.25 µM (≈ 2.31 µg/mL)	50 µM (≈ 18.5 µg/mL)	–	–	25 µM (≈ 9.25 µg/mL)	> 75 µM	0.14	0.06	−0.08	0.04	0.13	> 100 µM	Biofilm inhibition [11]: 43.7% and ~50%
COC(=O)C[Se]C(=O)c1cccc(C(=O)[Se]CC(=O)OC)c1 [Se-E2]	0.33	12.5 µM (≈ 5.45 µg/mL)	100 µM (≈ 43.6 µg/mL)	> 100 µM	> 100 µM	> 100 µM	> 75 µM	0.67	0.70	0.09	0.56	0.59	> 100 µM	EPI activity (in words) ([1]; resistant S. aureus MRSA, 60 min): effective; MIC [2]: 12.5 µM (≈ 5.45 µg/mL); MIC [16]: > 100 µM; EPI activity (in words) ([8]; reference (sensitive) S. aureus, 60 min): effective; Intracellular EB accumulation (in words) ([9]; S. Typhimurium SE02, 60 min): significantly increased; Intracellular EB accumulation (in words) ([12]; S. Typhimurium SE03, 60 min): significantly increased; Intracellular EB accumulation (in words) [13]: significantly increased
O=C(O)c1cn(C2CC2)c2cc(N3CCNCC3)c(F)cc2c1=O [CIP, ciprofloxacin-hydrochloride, reference compound]	–	–	–	–	–	–	–	–	–	–	–	–	–	MIC of the antibiotic alone [14]: 1.06 µM; MIC of the antibiotic alone [15]: 33.99 µM
CC(CN1c2ccccc2Sc2ccccc21)N(C)C (stereo not drawn) [Promethazine, promethazine, reference compound]	–	–	–	–	–	–	–	–	–	–	–	–	–	QS zone of inhibition [17]: 46 mm
